Reference: patent publication US20230080054A1 (ILDONG PHARMACEUTICAL CO., LTD., priority 2021, published 2023)

Molecular target: T1, human ANO6 (Homo sapiens, UniProt Q4KMQ2)
T1 construct: expressed in transfected cells
T1 sequence (Q4KMQ2 1-931 isoform Q4KMQ2-2): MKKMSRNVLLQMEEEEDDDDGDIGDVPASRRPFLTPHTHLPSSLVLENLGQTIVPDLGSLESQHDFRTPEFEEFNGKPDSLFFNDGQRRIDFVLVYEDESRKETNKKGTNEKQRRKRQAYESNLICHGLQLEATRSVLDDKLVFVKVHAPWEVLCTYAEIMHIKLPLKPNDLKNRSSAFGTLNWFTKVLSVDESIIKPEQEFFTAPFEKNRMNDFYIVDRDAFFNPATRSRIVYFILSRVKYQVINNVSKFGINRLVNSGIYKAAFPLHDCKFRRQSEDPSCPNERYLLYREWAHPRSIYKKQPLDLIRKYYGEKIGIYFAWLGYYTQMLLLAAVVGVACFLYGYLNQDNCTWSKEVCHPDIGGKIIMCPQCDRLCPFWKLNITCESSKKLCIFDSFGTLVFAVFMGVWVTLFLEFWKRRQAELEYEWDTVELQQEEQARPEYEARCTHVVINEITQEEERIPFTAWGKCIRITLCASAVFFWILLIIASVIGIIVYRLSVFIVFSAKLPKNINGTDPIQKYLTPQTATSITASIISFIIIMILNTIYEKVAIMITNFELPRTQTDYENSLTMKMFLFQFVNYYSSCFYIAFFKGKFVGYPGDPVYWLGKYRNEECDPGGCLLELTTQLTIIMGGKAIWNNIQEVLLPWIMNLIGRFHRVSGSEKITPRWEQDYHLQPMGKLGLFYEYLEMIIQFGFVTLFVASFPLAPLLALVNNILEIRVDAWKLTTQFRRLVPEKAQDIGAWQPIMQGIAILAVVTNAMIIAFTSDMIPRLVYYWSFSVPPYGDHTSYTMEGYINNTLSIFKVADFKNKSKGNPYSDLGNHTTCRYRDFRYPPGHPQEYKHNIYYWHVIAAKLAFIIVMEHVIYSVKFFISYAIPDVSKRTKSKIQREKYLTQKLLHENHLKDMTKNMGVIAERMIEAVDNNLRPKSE
Test: LACT C2 assay (phosphatidylserine scramblase function assay)
Assay type: cell-based
Conditions: FRT cells expressing human ANO6, 10 μM ionomycin; for inhibition at 1 µM: test compound 1 μM, read-out: Inhibition Level 1 μM; for inhibition at 0.1 µM: test compound 100 nM, read-out: Inhibition Level 100 nM
Description: Phosphatidylserine Scramblase Function Assay
1. Materials and Instruments
Ionomycin (Alomonelab, cat. #I-700), DAPI (Sigma-Aldrich, cat. #D8417), paraformaldehyde (Biosesang, cat. #P2031), Lionheart FX Automated Microscope (BioTek, Winooski), Python3 (Python Software Foundation), and OpenCV (Open Source Computer Vision Library).
Fisher rat thyroid (FRT) cells stably expressing human ANO6 (GenBank accession no. NP_001191732.1, provided by J. H. Nam, Dongguk University College of Medicine, Korea) were grown in DMEM/Ham's F-12 (1:1) medium with 10% FBS, 2 mM L-549 glutamine, 100 units/mL penicillin, and 100 μg/mL streptomycin at 37° C. and 5% CO2.
FRT cells stably expressing human ANO6 were plated in 96 well black-walled microplates at a density of 2×10^4 cells/well. After 24 hours incubation, cells were treated with the test compound (dissolved in DMSO) were treated to each well to become 1% v/v DMSO for 10 minutes, then 10 μM of ionomycin was applied. Finally each well was washed with 200 μL PBS after 10 minutes. After washout, the phosphatidylserine and nuclei were stained with PBS containing 500 nM Lactadherin-C2 (Lact-C2)-GFP, then cells were washed with 200 μL PBS. Cells were fixed with 4% paraformaldehyde for 5 minutes at room temperature. For morphological analysis, some cells were stained with fluorescently labelled DAPI for 15 minutes at room temperature. Quantitative analysis of the fluorescence intensity of Lact-C2-GFP was performed with Python3 and OpenCV. OpenCV was used to remove background and noise pixels, and the sum of all remaining pixel values was used to evaluate the fluorescence intensity of Lact-C2-GFP.
The inhibitory activity (%) of each of the test compounds was obtained by the following steps. In each row of 96 well plate, the inhibitory activity of each of the test compounds was calculated as percentages. The inhibitory activity of a negative control group to which neither compounds nor ionomycin were treated was set to be 100%, and the inhibitory activity of a positive control group to which ionomycin was treated and compounds were not treated was set to be 0%. The assay was performed in triplicate, and the results were averaged.

| inhibition at 1 µM [%] | inhibition at 0.1 µM [%] | Compound |
| --- | --- | --- |
| ≥ 60 | < 30 | O=C(NCc1ccc(F)c(Cl)c1)c1cccc(Nc2ccc(-c3ccccc3)nn2)c1 [Compound 211, N-(3-chloro-4-fluorobenzyl)-3-((6-phenylpyridazin-3-yl)amino)benzamide] |
| 30 to 60 | < 30 | O=C(NCc1ccc(F)c(Br)c1)c1cccc(Nc2ccc(-c3ccccc3)nn2)c1 [Compound 201, N-(3-bromo-4-fluorobenzyl)-3-((6-phenylpyridazin-3-yl)amino)benzamide] |
| < 30 | < 30 | O=C(NC1(CO)CC1)c1cccc(Nc2ccc(-c3cccc(F)c3)nn2)c1 [Compound 224, 3-((6-(3-fluorophenyl)pyridazin-3-yl)amino)-N-(1-(hydroxymethyl)cyclopropyl)benzamide] |
| 30 to 60 | < 30 | N#CC1(NC(=O)c2cccc(Nc3ccc(-c4cccc(F)c4)nn3)c2)CC1 [Compound 223, N-(1-cyanocyclopropyl)-3-((6-(3-fluorophenyl)pyridazin-3-yl)amino)benzamide] |
| 30 to 60 | < 30 | O=C(NC1(c2ccccc2)CC1)c1cccc(Nc2ccc(-c3cccc(F)c3)cn2)c1 [Compound 134, 3-((5-(3-fluorophenyl)pyridin-2-yl)amino)-N-(1-phenylcyclopropyl)benzamide] |
| ≥ 60 | 30 to 60 | Cc1ccc([C@@H]2C[C@H]2NC(=O)c2cccc(Nc3ccc(-c4ccccc4)nn3)c2)cc1 [Compound 235, 3-((6-phenylpyridazin-3-yl)amino)-N-((1R,2S)-2-(p-tolyl)cyclopropyl)benzamide] |
| ≥ 60 | 30 to 60 | O=C(N[C@@H]1C[C@H]1c1ccc(F)c(F)c1)c1cccc(Nc2ccc(-c3ccccc3)nn2)c1 [Compound 234, N-((1R,2S)-2-(3,4-difluorophenyl)cyclopropyl)-3-((6-phenylpyridazin-3-yl)amino)benzamide] |

Second part, the compound before the results:

| Compound | inhibition at 1 µM [%] | inhibition at 0.1 µM [%] |
| --- | --- | --- |
| COC(=O)c1ccc(CCNC(=O)c2cccc(Nc3ncc(-c4cccc(F)c4)cn3)c2)cc1 [Compound 126, methyl 4-(2-(3-((5-(3-fluorophenyl)pyrimidin-2-yl)amino)benzamido)ethyl)benzoate] | < 30 | – |
| O=C(NCc1ccc(C(F)(F)F)cc1C(F)(F)F)c1cccc(Nc2ncc(-c3cccc(F)c3)cn2)c1 [Compound 208, N-(2,4-bis(trifluoromethyl)benzyl)-3-((5-(3-fluorophenyl)pyrimidin-2-yl)amino)benzamide] | 30 to 60 | < 30 |
| CN1CCC(C2CC2NC(=O)c2cccc(Nc3ccc(-c4cccc(F)c4)cn3)c2)CC1 (centres unmarked) [Compound 144, 3-((5-(3-fluorophenyl)pyridin-2-yl)amino)-N-(2-(1-methylpiperidin-4-yl)cyclopropyl)benzamide] | < 30 | < 30 |
| Cc1cscc1-c1cnc(Nc2cccc(C(=O)Nc3cccc(F)c3)c2)nc1 [Compound 179, N-(3-fluorophenyl)-3-((5-(4-methylthiophen-3-yl)pyrimidin-2-yl)amino)benzamide] | – | ≥ 60 |
| O=C(Nc1nnc(-c2ccccc2)[nH]1)c1cccc(Nc2ncc(-c3cccc(F)c3)cn2)c1 [Compound 194, 3-((5-(3-fluorophenyl)pyrimidin-2-yl)amino)-N-(5-phenyl-4H-1,2,4-triazol-3-yl)benzamide] | – | < 30 |
| O=C(NCc1ccc(F)cc1)c1cccc(Nc2ncc(-c3cccc(F)c3)cn2)c1 [Compound A96] | 30 to 60 | < 30 |
| O=C(NC1(CO)CC1)c1cccc(Nc2ncc(-c3cccc(F)c3)cn2)c1 [Compound 219, 3-((5-(3-fluorophenyl)pyrimidin-2-yl)amino)-N-(1-(hydroxymethyl)cyclopropyl)benzamide] | < 30 | < 30 |
| O=C(Nc1ccccc1)c1cccc(Nc2ncc(-c3cccc(F)c3)cn2)c1 [Compound A93] | – | < 30 |
